{"source": "patent US20230399688A1", "about": "“COMPOSITIONS AND M[…] FOR COUPLED CELL-FREE TRANSCRIPTION-T[…] PROTEIN SYNTHESIS AND METHODS FOR USING THEM” (GENOMATICA, INC., priority 2015, published 2023)", "origin": "cited, not measured here", "tested_on": "human cancer cell lines", "details": "in comparison to the parent drug, MTM", "data": [{"compound": "CO[C@@H]([C@@H]1Cc2cc3cc(O[C@H]4C[C@@H](O[C@H]5C[C@@H](O)[C@H](O)[C@@H](C)O5)[C@H](O)[C@@H](C)O4)c(C)c(O)c3c(O)c2C(=O)[C@H]1O[C@H]1C[C@@H](O[C@H]2C[C@@H](O[C@H]3C[C@](C)(O)[C@H](O)[C@@H](C)O3)[C@@H](O)[C@@H](C)O2)[C@H](O)[C@@H](C)O1)[C@@H](O)C(C)=O", "note": "[MTM-SK, mithramycin SK]", "values": [{"measurement": "therapeutic index", "result": "improved therapeutic index"}]}]}
